Laboratory results taken from ChEMBL document CHEMBL3132769, “Fragment growing to retain or alter the selectivity of anchored kinase hinge-binding fragments” (Medchemcomm, 2014).

What was measured:
[1] = biological target: Ribosomal protein S6 kinase alpha-1 (Homo sapiens) (UniProt Q15418); assay: Inhibition of human full length RSK1 expressed in baculovirus assessed as substrate phosphorylation using fluorescence-labelled peptides as substrate at 0.2 uM after 90 mins by microfluidic peptide phosphorylation assay
Chain of Ribosomal protein S6 kinase alpha-1 (Homo sapiens) (Q15418 whole entry): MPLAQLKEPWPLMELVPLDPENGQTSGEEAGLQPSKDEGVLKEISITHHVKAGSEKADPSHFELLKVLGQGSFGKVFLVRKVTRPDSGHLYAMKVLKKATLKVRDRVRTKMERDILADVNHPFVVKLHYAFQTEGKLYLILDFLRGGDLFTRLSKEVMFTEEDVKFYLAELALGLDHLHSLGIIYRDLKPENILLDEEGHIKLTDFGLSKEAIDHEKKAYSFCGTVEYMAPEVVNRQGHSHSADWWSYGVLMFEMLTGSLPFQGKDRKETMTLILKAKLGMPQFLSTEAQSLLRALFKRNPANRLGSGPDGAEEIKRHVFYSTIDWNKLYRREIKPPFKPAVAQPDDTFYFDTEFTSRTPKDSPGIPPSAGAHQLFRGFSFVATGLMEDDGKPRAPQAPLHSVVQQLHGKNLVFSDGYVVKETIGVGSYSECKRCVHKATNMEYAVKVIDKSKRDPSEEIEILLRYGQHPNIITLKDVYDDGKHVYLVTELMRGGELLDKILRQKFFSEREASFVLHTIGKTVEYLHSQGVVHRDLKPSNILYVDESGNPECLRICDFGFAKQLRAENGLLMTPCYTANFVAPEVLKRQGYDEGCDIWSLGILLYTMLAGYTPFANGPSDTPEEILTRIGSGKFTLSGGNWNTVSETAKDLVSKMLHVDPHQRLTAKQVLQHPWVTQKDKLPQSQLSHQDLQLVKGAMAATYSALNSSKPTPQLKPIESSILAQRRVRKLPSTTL

[2] = biological target: Cyclin-dependent kinase 2 (Homo sapiens) (UniProt P24941); assay: Inhibition of human full length CDK2 expressed in baculovirus assessed as substrate phosphorylation using fluorescence-labelled peptides as substrate at 0.2 uM after 90 mins by microfluidic peptide phosphorylation assay
[3] = biological target: Ribosomal protein S6 kinase alpha-3 (Homo sapiens) (UniProt P51812); assay: Inhibition of human full length RSK2 expressed in baculovirus assessed as substrate phosphorylation using fluorescence-labelled peptides as substrate at 8 uM after 90 mins by microfluidic peptide phosphorylation assay
Chain of Ribosomal protein S6 kinase alpha-3 (Homo sapiens) (P51812 whole entry): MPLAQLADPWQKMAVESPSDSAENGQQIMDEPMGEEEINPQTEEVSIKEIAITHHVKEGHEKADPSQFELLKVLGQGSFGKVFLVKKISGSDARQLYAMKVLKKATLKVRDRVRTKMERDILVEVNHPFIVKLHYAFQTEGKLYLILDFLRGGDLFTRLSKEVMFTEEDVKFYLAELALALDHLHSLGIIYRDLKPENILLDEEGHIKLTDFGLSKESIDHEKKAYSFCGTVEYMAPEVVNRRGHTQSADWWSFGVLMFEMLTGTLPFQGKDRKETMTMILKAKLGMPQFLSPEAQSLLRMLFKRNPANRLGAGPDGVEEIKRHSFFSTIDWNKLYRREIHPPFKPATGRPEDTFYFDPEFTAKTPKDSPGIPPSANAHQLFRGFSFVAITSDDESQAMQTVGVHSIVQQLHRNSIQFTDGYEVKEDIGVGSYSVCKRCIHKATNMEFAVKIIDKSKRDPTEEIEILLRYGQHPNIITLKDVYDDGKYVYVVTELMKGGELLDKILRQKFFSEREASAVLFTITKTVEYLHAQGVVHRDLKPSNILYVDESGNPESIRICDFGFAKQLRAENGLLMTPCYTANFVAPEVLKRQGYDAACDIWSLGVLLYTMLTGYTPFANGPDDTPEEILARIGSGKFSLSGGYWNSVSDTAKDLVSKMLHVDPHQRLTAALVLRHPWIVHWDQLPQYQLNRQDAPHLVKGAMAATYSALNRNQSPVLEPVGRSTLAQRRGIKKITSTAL

[4] = biological target: T1, Testis-specific serine/threonine-protein kinase 1 (Homo sapiens) (UniProt Q9BXA7); assay: Inhibition of human full length TSSK1 expressed in baculovirus assessed as substrate phosphorylation using fluorescence-labelled peptides as substrate at 2 uM after 90 mins by microfluidic peptide phosphorylation assay
T1 sequence (whole entry): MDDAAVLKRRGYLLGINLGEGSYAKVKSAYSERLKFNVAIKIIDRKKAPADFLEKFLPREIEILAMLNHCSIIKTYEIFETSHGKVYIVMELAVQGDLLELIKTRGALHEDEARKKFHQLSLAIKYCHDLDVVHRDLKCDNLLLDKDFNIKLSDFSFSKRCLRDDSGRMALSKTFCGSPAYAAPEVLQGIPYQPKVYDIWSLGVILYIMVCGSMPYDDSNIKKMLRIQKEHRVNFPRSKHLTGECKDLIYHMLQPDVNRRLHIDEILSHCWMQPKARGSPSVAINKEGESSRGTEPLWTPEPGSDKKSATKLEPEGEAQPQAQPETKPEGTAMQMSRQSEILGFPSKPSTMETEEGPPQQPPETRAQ

[5] = biological target: Platelet-derived growth factor receptor alpha (Homo sapiens) (UniProt P16234); assay: Inhibition of human PDGFR alpha catalytic domain expressed in baculovirus assessed as substrate phosphorylation using fluorescence-labelled peptides as substrate at 2 uM after 90 mins by microfluidic peptide phosphorylation assay
Chain of Platelet-derived growth factor receptor alpha (Homo sapiens) (P16234 whole entry, the tested form may be a part): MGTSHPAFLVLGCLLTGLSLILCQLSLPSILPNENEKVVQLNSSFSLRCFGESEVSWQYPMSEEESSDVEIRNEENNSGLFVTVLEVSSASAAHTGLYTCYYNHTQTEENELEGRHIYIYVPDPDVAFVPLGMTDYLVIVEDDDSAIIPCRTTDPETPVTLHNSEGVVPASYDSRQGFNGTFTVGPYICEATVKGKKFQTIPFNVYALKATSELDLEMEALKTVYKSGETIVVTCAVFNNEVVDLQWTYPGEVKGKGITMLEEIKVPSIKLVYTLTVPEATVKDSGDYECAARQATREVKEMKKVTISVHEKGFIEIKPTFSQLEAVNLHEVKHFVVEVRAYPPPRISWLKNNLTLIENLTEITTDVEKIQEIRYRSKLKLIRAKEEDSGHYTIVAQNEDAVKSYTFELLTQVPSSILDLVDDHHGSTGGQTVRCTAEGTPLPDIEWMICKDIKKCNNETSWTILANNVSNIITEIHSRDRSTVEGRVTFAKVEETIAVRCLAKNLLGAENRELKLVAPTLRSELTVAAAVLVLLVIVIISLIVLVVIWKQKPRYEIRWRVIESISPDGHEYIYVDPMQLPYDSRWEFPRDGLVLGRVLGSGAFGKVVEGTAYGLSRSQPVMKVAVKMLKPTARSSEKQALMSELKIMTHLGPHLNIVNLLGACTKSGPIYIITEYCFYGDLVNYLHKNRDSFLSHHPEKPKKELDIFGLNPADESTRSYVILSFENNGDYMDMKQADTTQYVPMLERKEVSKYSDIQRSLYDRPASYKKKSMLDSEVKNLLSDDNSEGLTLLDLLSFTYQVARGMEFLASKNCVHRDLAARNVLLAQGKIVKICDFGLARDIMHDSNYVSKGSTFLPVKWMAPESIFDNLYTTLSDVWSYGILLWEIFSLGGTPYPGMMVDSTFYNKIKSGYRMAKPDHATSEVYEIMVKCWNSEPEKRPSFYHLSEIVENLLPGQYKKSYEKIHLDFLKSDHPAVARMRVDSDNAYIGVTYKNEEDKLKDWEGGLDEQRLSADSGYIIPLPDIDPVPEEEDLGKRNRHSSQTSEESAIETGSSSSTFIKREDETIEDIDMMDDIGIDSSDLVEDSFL

[6] = biological target: Serine/threonine-protein kinase pim-1 (Homo sapiens) (UniProt P11309); assay: Inhibition of human full length PIM1 expressed in baculovirus assessed as substrate phosphorylation using fluorescence-labelled peptides as substrate at 1000 uM after 90 mins by microfluidic peptide phosphorylation assay
Chain of Serine/threonine-protein kinase pim-1 (Homo sapiens) (P11309 whole entry, looked up, the tested form may be a part): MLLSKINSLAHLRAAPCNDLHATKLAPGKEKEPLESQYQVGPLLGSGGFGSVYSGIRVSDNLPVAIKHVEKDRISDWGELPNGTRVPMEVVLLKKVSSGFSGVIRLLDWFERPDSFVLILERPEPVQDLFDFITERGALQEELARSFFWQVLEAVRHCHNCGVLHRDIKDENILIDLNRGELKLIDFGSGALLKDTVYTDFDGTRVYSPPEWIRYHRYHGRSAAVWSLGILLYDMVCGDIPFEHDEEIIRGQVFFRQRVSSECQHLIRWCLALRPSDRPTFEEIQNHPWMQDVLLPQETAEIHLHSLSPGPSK

[7] = biological target: Fibroblast growth factor receptor 2 (Homo sapiens) (UniProt P21802); assay: Inhibition of human FGFR2 catalytic domain expressed in baculovirus assessed as substrate phosphorylation using fluorescence-labelled peptides as substrate at 0.06 uM after 90 mins by microfluidic peptide phosphorylation assay
Chain of Fibroblast growth factor receptor 2 (Homo sapiens) (P21802 22-821 limits assumed): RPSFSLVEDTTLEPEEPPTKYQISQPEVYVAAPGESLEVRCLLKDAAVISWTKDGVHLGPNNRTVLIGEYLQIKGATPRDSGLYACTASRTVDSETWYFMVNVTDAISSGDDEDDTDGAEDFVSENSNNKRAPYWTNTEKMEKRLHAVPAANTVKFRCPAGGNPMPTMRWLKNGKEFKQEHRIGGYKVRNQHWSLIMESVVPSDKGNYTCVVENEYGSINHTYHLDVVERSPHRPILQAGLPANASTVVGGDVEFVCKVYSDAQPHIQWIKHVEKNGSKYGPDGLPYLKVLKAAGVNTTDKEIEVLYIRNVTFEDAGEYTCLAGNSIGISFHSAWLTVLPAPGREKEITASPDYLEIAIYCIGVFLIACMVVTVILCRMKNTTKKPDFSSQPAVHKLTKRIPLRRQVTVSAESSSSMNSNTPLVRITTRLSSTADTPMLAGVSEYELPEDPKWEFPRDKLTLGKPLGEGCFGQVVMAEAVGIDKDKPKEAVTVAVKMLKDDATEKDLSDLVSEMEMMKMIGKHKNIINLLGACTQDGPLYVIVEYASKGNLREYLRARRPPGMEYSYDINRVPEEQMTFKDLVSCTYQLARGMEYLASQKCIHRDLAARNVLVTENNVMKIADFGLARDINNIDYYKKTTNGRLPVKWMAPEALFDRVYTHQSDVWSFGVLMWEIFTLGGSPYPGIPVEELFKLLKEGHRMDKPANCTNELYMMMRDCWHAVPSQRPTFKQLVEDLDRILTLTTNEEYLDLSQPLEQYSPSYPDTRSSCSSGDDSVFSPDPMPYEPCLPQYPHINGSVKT

[8] = biological target: T2, Serine/threonine-protein kinase Sgk2 (Homo sapiens) (UniProt Q9HBY8); assay: Inhibition of human full length SGK2 expressed in baculovirus assessed as substrate phosphorylation using fluorescence-labelled peptides as substrate at 0.1 uM after 90 mins by microfluidic peptide phosphorylation assay
T2 sequence (whole entry): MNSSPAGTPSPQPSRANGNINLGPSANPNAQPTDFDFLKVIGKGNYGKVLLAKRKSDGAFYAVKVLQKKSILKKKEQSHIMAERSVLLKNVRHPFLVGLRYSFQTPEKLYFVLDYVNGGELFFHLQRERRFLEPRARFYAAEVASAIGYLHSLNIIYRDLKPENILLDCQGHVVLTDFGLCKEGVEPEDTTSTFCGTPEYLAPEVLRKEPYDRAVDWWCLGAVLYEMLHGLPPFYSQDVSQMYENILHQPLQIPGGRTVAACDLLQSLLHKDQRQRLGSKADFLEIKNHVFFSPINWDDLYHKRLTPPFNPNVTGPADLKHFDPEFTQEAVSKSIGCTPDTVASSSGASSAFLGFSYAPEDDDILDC

[9] = biological target: T3, Serine/threonine-protein kinase 3 (Homo sapiens) (UniProt Q13188); assay: Inhibition of human full length MST2 expressed in baculovirus assessed as substrate phosphorylation using fluorescence-labelled peptides as substrate at 0.1 uM after 90 mins by microfluidic peptide phosphorylation assay
T3 sequence (whole entry): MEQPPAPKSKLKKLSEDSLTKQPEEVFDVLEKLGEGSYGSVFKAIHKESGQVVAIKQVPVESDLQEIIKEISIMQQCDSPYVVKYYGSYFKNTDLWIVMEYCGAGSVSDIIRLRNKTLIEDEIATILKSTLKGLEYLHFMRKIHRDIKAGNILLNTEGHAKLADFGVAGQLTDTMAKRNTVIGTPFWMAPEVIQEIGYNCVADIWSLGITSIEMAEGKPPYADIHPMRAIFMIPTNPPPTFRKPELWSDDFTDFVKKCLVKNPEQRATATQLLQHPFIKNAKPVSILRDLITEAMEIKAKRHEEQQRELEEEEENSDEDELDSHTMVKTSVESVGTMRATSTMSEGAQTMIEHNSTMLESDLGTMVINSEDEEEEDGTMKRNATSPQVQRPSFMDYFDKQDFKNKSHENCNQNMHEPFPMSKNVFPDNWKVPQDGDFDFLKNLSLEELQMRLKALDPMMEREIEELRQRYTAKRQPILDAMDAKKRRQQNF

[10] = biological target: Platelet-derived growth factor receptor alpha (Homo sapiens) (UniProt P16234); assay: Inhibition of human PDGFR alpha catalytic domain expressed in baculovirus assessed as substrate phosphorylation using fluorescence-labelled peptides as substrate at 0.1 uM after 90 mins by microfluidic peptide phosphorylation assay
Homo sapiens = species on record: Homo sapiens; settings: 0.1 uM
Description: Inhibition of human full length PKA expressed in baculovirus assessed as substrate phosphorylation using fluorescence-labelled peptides as substrate at 0.1 uM after 90 mins by microfluidic peptide phosphorylation assay

[11] = tested on: Tyrosine-protein kinase ABL1 (Homo sapiens), P00519 [T315I]; settings: 0.1 uM
[12] = biological target: T4, Serine/threonine-protein kinase Chk1 (Homo sapiens) (UniProt O14757); assay: Inhibition of human full length CHK1 expressed in baculovirus assessed as substrate phosphorylation using fluorescence-labelled peptides as substrate at 70 uM after 90 mins by microfluidic peptide phosphorylation assay
T4 sequence (whole entry): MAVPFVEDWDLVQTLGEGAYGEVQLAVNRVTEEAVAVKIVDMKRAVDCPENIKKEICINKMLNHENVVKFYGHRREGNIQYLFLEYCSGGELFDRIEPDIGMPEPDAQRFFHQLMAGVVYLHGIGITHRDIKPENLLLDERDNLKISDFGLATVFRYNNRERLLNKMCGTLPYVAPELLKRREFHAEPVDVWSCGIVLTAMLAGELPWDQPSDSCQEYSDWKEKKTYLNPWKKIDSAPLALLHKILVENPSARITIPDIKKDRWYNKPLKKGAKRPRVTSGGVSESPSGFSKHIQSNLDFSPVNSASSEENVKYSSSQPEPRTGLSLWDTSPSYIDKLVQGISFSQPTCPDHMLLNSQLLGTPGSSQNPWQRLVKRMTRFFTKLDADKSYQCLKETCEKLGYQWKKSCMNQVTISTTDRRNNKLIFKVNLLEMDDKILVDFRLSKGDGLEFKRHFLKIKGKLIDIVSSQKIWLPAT

[13] = biological target: Fibroblast growth factor receptor 3 (Homo sapiens) (UniProt P22607); assay: Inhibition of human FGFR3 catalytic domain expressed in baculovirus assessed as substrate phosphorylation using fluorescence-labelled peptides as substrate at 70 uM after 90 mins by microfluidic peptide phosphorylation assay
Chain of Fibroblast growth factor receptor 3 (Homo sapiens) (P22607 23-806 limits assumed): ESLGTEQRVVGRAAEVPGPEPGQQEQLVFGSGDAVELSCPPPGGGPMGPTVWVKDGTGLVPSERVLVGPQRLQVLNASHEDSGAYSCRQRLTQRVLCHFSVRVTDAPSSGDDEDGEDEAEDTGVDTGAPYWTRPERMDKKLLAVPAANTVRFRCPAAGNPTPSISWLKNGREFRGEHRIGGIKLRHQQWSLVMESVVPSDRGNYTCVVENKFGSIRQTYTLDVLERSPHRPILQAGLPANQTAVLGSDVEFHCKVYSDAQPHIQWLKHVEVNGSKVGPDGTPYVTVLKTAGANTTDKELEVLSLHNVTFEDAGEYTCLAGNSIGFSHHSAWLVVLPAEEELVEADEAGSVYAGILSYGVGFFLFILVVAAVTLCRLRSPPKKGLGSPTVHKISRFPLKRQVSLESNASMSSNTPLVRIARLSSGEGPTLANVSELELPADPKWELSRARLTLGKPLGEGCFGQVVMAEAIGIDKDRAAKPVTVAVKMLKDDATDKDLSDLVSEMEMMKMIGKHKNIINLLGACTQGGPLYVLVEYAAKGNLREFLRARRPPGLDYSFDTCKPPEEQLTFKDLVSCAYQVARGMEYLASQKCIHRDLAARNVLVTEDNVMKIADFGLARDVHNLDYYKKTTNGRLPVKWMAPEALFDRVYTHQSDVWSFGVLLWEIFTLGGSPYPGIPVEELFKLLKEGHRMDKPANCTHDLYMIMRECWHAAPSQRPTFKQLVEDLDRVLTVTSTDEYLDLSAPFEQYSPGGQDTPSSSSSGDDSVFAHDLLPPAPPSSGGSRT

Structure (SMILES): Clc1ccc(C2(c3ccc(-c4ncnc5[nH]cnc45)cc3)CCNCC2)cc1
- inhibition [1]: 38%
- inhibition [2]: 7.5%

Structure (SMILES): NCC1CCN(c2ncnc3[nH]ccc23)CC1
- inhibition [3]: 32%

Structure (SMILES): NC1CCN(c2ncnc3[nH]ccc23)CC1
- inhibition [4]: 0%
- inhibition [5]: 5%

Structure (SMILES): c1cnc2[nH]ccc2c1
- inhibition [6]: 20%

Structure (SMILES): NC1(Cc2ccc(Cl)cc2)CCN(c2ncnc3[nH]ccc23)CC1
- inhibition [7]: 0%

Structure (SMILES): C[C@H](CN(C)C)Oc1nc(Nc2cc3cccc(Cl)c3cn2)cnc1C#N
- inhibition [8]: 5.5%
- inhibition [9]: 11.5%
- inhibition [10]: 8.5%
- inhibition (Homo sapiens): 0%
- inhibition [11]: 0%

Structure (SMILES): CNCc1ccc(-c2ncnc3[nH]cnc23)cc1
- inhibition [12]: 72%
- inhibition [13]: 27.5%
